In paper PMC11076555, “Dishevelled2 activates WGEF via its interaction with a unique internal peptide motif of the GEF” (Communications Biology, 2024):

Columns and labels:
[1] = target: T1, Dvl2^PDZ (PDZ domain of human Dishevelled2) (Homo sapiens, UniProt O14641); experiment: Microscale thermophoresis (MST) binding to Dvl2^PDZ; details: compared with wild-type WGEF^pep, triplicates
T1 construct: introducing a stop codon after C354 residue of Dvl2^PDZ to eliminate the fused peptide, cloned at the C-termini of PDZ; 6xHis (N, cleaved yes); host or cells: E. coli Rosetta (DE3)
T1 sequence (O14641 267-339 limits assumed): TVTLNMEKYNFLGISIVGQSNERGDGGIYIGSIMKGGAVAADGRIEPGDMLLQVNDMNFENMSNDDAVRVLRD
Procedure: MST experiments were performed using Monolith NT.115 instrument from Nanotemper technologies. Dvl2^PDZ domain was fluorescently labelled as per the instructions, using Monolith Redmaleimide 2nd generation-cysteine reactive label. The experimental condition consists of 10 mM Tris–HCl pH8, 150 mM NaCl, 2 mM DTT, 5% Glycerol and 0.05% Tween20. For Dvl2^PDZ-peptide affinity determination, synthetic WGEF peptides were serially diluted (1:2) 16 times, starting from an approximate concentration of 3.4 mM. 50 nM of fluorescently labelled Dvl2^PDZ domain was added to the serially diluted peptides, followed by incubation at 25 °C for 30 minutes. Thermophoresis signals were recorded at 20% of excitation power and 40% MST at 25 °C. Data was fitted using the Kd fit model in the MO. Affinity Analysis v2.3 software. Like peptides, hWGEF (330–581) protein was serially diluted to obtain a protein concentration range of 138–0.0042 µM. Experimental conditions were the same as mentioned above for peptides. All MST experiments were done in triplicates.
Guanine nucleotide exchange assays were performed in triplicates. Fluorescence decrease was fitted using a single exponential decay mode in GraphPad Prism. All results are reported with standard deviation (±SD). Statistical significance was calculated using ordinary One-way ANOVA with multiple comparisons. * Represents adjust P value with statistical significance of ****P < 0.0001, ***P < 0.001, **P < 0.01 and […]. MST assays were performed in triplicates. Data was fitted using the Kd fit model in the MO. Affinity Analysis v2.3 software. All results are reported with standard deviation (±SD). MD simulation runs for apo and peptide docked Dvl2^PDZ were performed in triplicates. Plots reported from MD simulation studies are represented with standard deviation (±SD).

[2] = test system: Dvl2^PDZ–WGEF interaction; experiment: In vitro guanine nucleotide exchange (GEF) assay, peptide competition with Dvl2^PDZ-activated xWGEF330; assay type: biochemical, Xenopus laevis (xWGEF), human (hDvl2^PDZ; details: 200 µM peptide, 50 µM Dvl2^PDZ, 5 µM xWGEF330, 2 µM Mant-GDP loaded RhoA, 30 min at 25 °C, fluorescence 360/440 nm, triplicates
Procedure: Guanine nucleotide exchange assays were carried out using RhoA loaded with fluorescently labelled Mant-GDP[63],[64]. Briefly, 150 μM of RhoA was incubated with 5 Molar excess of fluorescent label, i.e., Mant-GDP in a buffer containing 10 mM Tris pH 8, 150 mM NaCl, 2 mM DTT, 5 mM EDTA, 0.5 mM MgCl2 and 5% Glycerol. The reaction was incubated on ice for 30 min, followed by the addition of 10 mM MgCl2 to stop the reaction. Excess Mant-GDP was removed through buffer exchange and Mant-GDP loaded RhoA was concentrated and stored at −80 °C. For assays, 2 μM of Mant-GDP loaded RhoA was incubated with 5 μM of xWGEF in the presence or absence of hDvl2^PDZ (0 μM, 25 μM and 50 μM) for 30 min at 25 °C. […] Once the fluorescence was stable, excess GTP (10x of labelled GTPase) was added to start the exchange reaction. […] A decrease in fluorescence was recorded using a BioTek Cytation5 plate reader with excitation and emission of 360 and 440 nm, respectively. Fluorescence was normalized and decrease was fitted using a single exponential decay mode in GraphPad Prism. […]
Guanine nucleotide exchange assays were performed in triplicates. Fluorescence decrease was fitted using a single exponential decay mode in GraphPad Prism. […]

Sequence	Effect of alanine substitution on WGEF^pep–Dvl2^PDZ interaction (in words) [1]	Effect of peptide on GEF (nucleotide exchange) activity of Dvl2^PDZ-activated xWGEF330 [2]
GSTFSLAQDIP [WGEF^pepW7A, alanine variant of WGEF^pep, …]	completely abolishes	–
GSTFSLWQAIP [WGEF^pepD9A, alanine variant of WGEF^pep, …]	completely abolishes	decrease in the exchange activity of WGEF, but not to an extent brought out by the wild-type WGEF^pep
GSTFSLWQDIA [WGEF^pepP11A, alanine variant of WGEF^pep, …]	completely abolishes	–
